# Patent publication US20230365553A1, “COMPOUNDS AND COMPOSITIONS FOR TREATING CONDITIONS ASSOCIATED WITH STING ACTIVITY” (IFM Due, Inc., priority 2020, published 2023)
# Target: T1, STING (Homo sapiens, UniProt Q86WV6, G230A/H232R/R293Q/R71H)
# T1 construct: host or cells: THP1-Dual KO-IFNAR2 cells
# Assay: STING reporter assay: luciferase reporter activity in THP1-Dual KO-IFNAR2 cells stimulated with 2′3′cGAMP
# Format: cell-based
# Settings: 15 μM 2′3′cGAMP, 24h, read-out: hSTING EC50
# Summary of the method: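 THP1-Dual KO-IFNAR2 cells (2×10E6 cells/mL) were exposed to compounds at 0.0017-100 μM, then stimulated with 2′3′cGAMP (15 μM final) transfected via Lipofectamine 2000. After 24h at 37° C., secreted luciferase in supernatant was read by QUANTI-Luc luminescence; EC50 derived from concentration-response.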
# T1 sequence (Q86WV6 whole entry R71H/G230A/H232R/R293Q): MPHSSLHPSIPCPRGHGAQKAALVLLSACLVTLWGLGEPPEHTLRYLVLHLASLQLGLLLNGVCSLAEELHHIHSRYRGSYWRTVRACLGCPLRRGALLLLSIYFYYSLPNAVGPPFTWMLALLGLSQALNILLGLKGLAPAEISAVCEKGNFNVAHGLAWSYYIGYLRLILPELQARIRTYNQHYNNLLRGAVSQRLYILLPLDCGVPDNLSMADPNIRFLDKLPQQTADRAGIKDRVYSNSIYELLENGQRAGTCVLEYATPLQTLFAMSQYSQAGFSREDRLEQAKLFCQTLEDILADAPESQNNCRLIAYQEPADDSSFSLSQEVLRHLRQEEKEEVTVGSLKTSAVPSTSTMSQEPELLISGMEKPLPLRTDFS
row,EC50,Structure (SMILES)
1,1000 to 5000 nM,"CC(C)(C)C(=O)Nc1c[nH]c2ccc(-c3cnn(-c4ccc(C(F)(F)F)cc4)c3)cc12 [Compound 216, N-(5-(1-(4-(trifluoromethyl)phenyl)-1H-pyrazol-4-yl)-1H-indol-3-yl)pivalamide]"
2,200 to 1000 nM,"COCCOCC(=O)Nc1c[nH]c2ccc(-c3cnn(-c4ccc(C(F)(F)F)cc4)c3)cc12 [Compound 217, 2-(2-methoxyethoxy)-N-(5-(1-(4-(trifluoromethyl)phenyl)-1H-pyrazol-4-yl)-1H-indol-3-yl)acetamide]"
3,1000 to 5000 nM,"CC(=O)NC(C(=O)Nc1c[nH]c2ccc(-c3cnn(-c4ccc(C(F)(F)F)cc4)c3)cc12)C(C)C (stereo not drawn) [Compound 218, 2-acetamido-3-methyl-N-(5-(1-(4-(trifluoromethyl)phenyl)-1H-pyrazol-4-yl)-1H-indol-3-yl)butanamide]"
4,1000 to 5000 nM,"O=C1CC(C(=O)Nc2c[nH]c3ccc(-c4cnn(-c5ccc(C(F)(F)F)cc5)c4)cc23)CCN1 (stereo not drawn) [Compound 219, 2-oxo-N-(5-(1-(4-(trifluoromethyl)phenyl)-1H-pyrazol-4-yl)-1H-indol-3-yl)piperidine-4-carboxamide]"
5,5000 to 100000 nM,"N#CC1(C(=O)Nc2c[nH]c3ccc(-c4cnn(-c5ccc(C(F)(F)F)cc5)c4)cc23)CCOCC1 [Compound 220, 4-cyano-N-(5-(1-(4-(trifluoromethyl)phenyl)-1H-pyrazol-4-yl)-1H-indol-3-yl)tetrahydro-2H-pyran-4-carboxamide]"
6,1000 to 5000 nM,"O=C1CCC[C@@H](C(=O)Nc2c[nH]c3ccc(-c4cnn(-c5ccc(C(F)(F)F)cc5)c4)cc23)N1 [Compound 221, (S)-6-oxo-N-(5-(1-(4-(trifluoromethyl)phenyl)-1H-pyrazol-4-yl)-1H-indol-3-yl)piperidine-2-carboxamide]"
7,1000 to 5000 nM,"CC1(C(=O)Nc2c[nH]c3ccc(-c4cnn(-c5ccc(C(F)(F)F)cc5)c4)cc23)CCOCC1 [Compound 222, 4-methyl-N-(5-(1-(4-(trifluoromethyl)phenyl)-1H-pyrazol-4-yl)-1H-indol-3-yl)tetrahydro-2H-pyran-4-carboxamide]"
8,1000 to 5000 nM,"CC(=O)N1CC(C(=O)Nc2c[nH]c3ccc(-c4cnn(-c5ccc(C(F)(F)F)cc5)c4)cc23)C1 [Compound 223, 1-acetyl-N-(5-(1-(4-(trifluoromethyl)phenyl)-1H-pyrazol-4-yl)-1H-indol-3-yl)azetidine-3-carboxamide]"
9,1000 to 5000 nM,"CN1CC(C(=O)Nc2c[nH]c3ccc(-c4cnn(-c5ccc(C(F)(F)F)cc5)c4)cc23)CCC1=O (stereo not drawn) [Compound 224, 1-methyl-6-oxo-N-(5-(1-(4-(trifluoromethyl)phenyl)-1H-pyrazol-4-yl)-1H-indol-3-yl)piperidine-3-carboxamide]"
10,1000 to 5000 nM,"CC(=O)N(C)CC(=O)Nc1c[nH]c2ccc(-c3cnn(-c4ccc(C(F)(F)F)cc4)c3)cc12 [Compound 225, N-methyl-N-(2-oxo-2-((5-(1-(4-(trifluoromethyl)phenyl)-1H-pyrazol-4-yl)-1H-indol-3-yl)amino)ethyl)acetamide]"
11,1000 to 5000 nM,"CC(=O)N1CCCC1C(=O)Nc1c[nH]c2ccc(-c3cnn(-c4ccc(C(F)(F)F)cc4)c3)cc12 (stereo not drawn) [Compound 226, 1-acetyl-N-(5-(1-(4-(trifluoromethyl)phenyl)-1H-pyrazol-4-yl)-1H-indol-3-yl)pyrrolidine-2-carboxamide]"
12,1000 to 5000 nM,"COC(C)C(=O)Nc1c[nH]c2ccc(-c3cnn(-c4ccc(C(F)(F)F)cc4)c3)cc12 (stereo not drawn) [Compound 227, 2-methoxy-N-(5-(1-(4-(trifluoromethyl)phenyl)-1H-pyrazol-4-yl)-1H-indol-3-yl)propanamide]"
13,1000 to 5000 nM,"CC(C)(C#N)C(=O)Nc1c[nH]c2ccc(-c3cnn(-c4ccc(C(F)(F)F)cc4)c3)cc12 [Compound 228, 2-cyano-2-methyl-N-(5-(1-(4-(trifluoromethyl)phenyl)-1H-pyrazol-4-yl)-1H-indol-3-yl)propanamide]"
14,1000 to 5000 nM,"N#CC1(C(=O)Nc2c[nH]c3ccc(-c4cnn(-c5ccc(C(F)(F)F)cc5)c4)cc23)CCC1 [Compound 229, 1-cyano-N-(5-(1-(4-(trifluoromethyl)phenyl)-1H-pyrazol-4-yl)-1H-indol-3-yl)cyclobutane-1-carboxamide]"
15,5000 to 100000 nM,"CC1=NOC(C)(C(=O)Nc2c[nH]c3ccc(-c4cnn(-c5ccc(C(F)(F)F)cc5)c4)cc23)C1 (stereo not drawn) [Compound 230, 3,5-dimethyl-N-(5-(1-(4-(trifluoromethyl)phenyl)-1H-pyrazol-4-yl)-1H-indol-3-yl)-4,5-dihydroisoxazole-5-carboxamide]"
16,1000 to 5000 nM,"CN1CCC(C(=O)Nc2c[nH]c3ccc(-c4cnn(-c5ccc(C(F)(F)F)cc5)c4)cc23)CC1=O (stereo not drawn) [Compound 231, 1-methyl-2-oxo-N-(5-(1-(4-(trifluoromethyl)phenyl)-1H-pyrazol-4-yl)-1H-indol-3-yl)piperidine-4-carboxamide]"
17,200 to 1000 nM,"CC1(C(=O)Nc2c[nH]c3ccc(-c4cnn(-c5ccc(C(F)(F)F)cc5)c4)cc23)COC1 [Compound 232, 3-methyl-N-(5-(1-(4-(trifluoromethyl)phenyl)-1H-pyrazol-4-yl)-1H-indol-3-yl)oxetane-3-carboxamide]"

row,EC50,Structure (SMILES)
1,200 to 1000 nM,"O=C(Nc1c[nH]c2ccc(-c3cnn(-c4ccc(C(F)(F)F)cc4)c3)cc12)C1(F)CCOCC1 [Compound 233, 4-fluoro-N-(5-(1-(4-(trifluoromethyl)phenyl)-1H-pyrazol-4-yl)-1H-indol-3-yl)tetrahydro-2H-pyran-4-carboxamide]"
2,1000 to 5000 nM,"O=C1CCC(C(=O)Nc2c[nH]c3ccc(-c4cnn(-c5ccc(C(F)(F)F)cc5)c4)cc23)=NN1 [Compound 234, 6-oxo-N-(5-(1-(4-(trifluoromethyl)phenyl)-1H-pyrazol-4-yl)-1H-indol-3-yl)-1,4,5,6-tetrahydropyridazine-3-carboxamide]"
3,1000 to 5000 nM,"N#CC1(C(=O)Nc2c[nH]c3ccc(-c4cnn(-c5ccc(C(F)(F)F)cc5)c4)cc23)CC1 [Compound 235, 1-cyano-N-(5-(1-(4-(trifluoromethyl)phenyl)-1H-pyrazol-4-yl)-1H-indol-3-yl)cyclopropane-1-carboxamide]"
4,200 to 1000 nM,"O=C(Nc1c[nH]c2ccc(-c3cnn(-c4ccc(C(F)(F)F)cc4)c3)cc12)C1CC(F)(F)C1 [Compound 236, 3,3-difluoro-N-(5-(1-(4-(trifluoromethyl)phenyl)-1H-pyrazol-4-yl)-1H-indol-3-yl)cyclobutane-1-carboxamide]"
5,200 to 1000 nM,"O=C(Nc1c[nH]c2ccc(-c3cnn(-c4ccc(C(F)(F)F)cc4)c3)cc12)C1CCC(F)(F)CC1 [Compound 237, 4,4-difluoro-N-(5-(1-(4-(trifluoromethyl)phenyl)-1H-pyrazol-4-yl)-1H-indol-3-yl)cyclohexane-1-carboxamide]"
6,1000 to 5000 nM,"O=C(Nc1c[nH]c2ccc(-c3cnn(-c4ccc(C(F)(F)F)cc4)c3)cc12)C1(C(F)(F)F)CC1 [Compound 238, 1-(trifluoromethyl)-N-(5-(1-(4-(trifluoromethyl)phenyl)-1H-pyrazol-4-yl)-1H-indol-3-yl)cyclopropane-1-carboxamide]"
7,200 to 1000 nM,"O=C(Nc1c[nH]c2ccc(-c3cnn(-c4ccc(C(F)(F)F)cc4)c3)cc12)C1CC1(F)F (stereo not drawn) [Compound 239, 2,2-difluoro-N-(5-(1-(4-(trifluoromethyl)phenyl)-1H-pyrazol-4-yl)-1H-indol-3-yl)cyclopropane-1-carboxamide]"
8,200 to 1000 nM,"CS(=O)(=O)CCC(=O)Nc1c[nH]c2ccc(-c3cnn(-c4ccc(C(F)(F)F)cc4)c3)cc12 [Compound 240, 3-(methylsulfonyl)-N-(5-(1-(4-(trifluoromethyl)phenyl)-1H-pyrazol-4-yl)-1H-indol-3-yl)propanamide]"
9,200 to 1000 nM,"O=C(Nc1c[nH]c2ccc(-c3cnn(-c4ccc(C(F)(F)F)cc4)c3)cc12)C1(F)CCC1 [Compound 241, 1-fluoro-N-(5-(1-(4-(trifluoromethyl)phenyl)-1H-pyrazol-4-yl)-1H-indol-3-yl)cyclobutane-1-carboxamide]"
10,200 to 1000 nM,"O=C(Nc1c[nH]c2ccc(-c3cnn(-c4ccc(C(F)(F)F)cc4)c3)cc12)C1CC(O)C1 (stereo not drawn) [Compound 242, 3-hydroxy-N-(5-(1-(4-(trifluoromethyl)phenyl)-1H-pyrazol-4-yl)-1H-indol-3-yl)cyclobutane-1-carboxamide]"
11,200 to 1000 nM,"C[C@@H](c1cccc(C(F)(F)F)c1)n1cc(-c2ccc3[nH]cc(NC(=O)C4CCC4)c3c2)cn1 [Compound 243, (S)-N-(5-(1-(1-(3-(trifluoromethyl)phenyl)ethyl)-1H-pyrazol-4-yl)-1H-indol-3-yl)cyclobutanecarboxamide]"
12,40 to 200 nM,"CC(=O)Nc1c[nH]c2ccc(-c3cnn(-c4ccc(C(F)(F)F)cc4)c3)cc12 [Compound 245, N-(5-(1-(4-(trifluoromethyl)phenyl)-1H-pyrazol-4-yl)-1H-indol-3-yl)acetamide]"
13,5000 to 100000 nM,"CC(=O)N(C)c1c[nH]c2ccc(-c3cnn(-c4ccc(C(F)(F)F)cc4)c3)cc12 [Compound 246, N-methyl-N-(5-(1-(4-(trifluoromethyl)phenyl)-1H-pyrazol-4-yl)-1H-indol-3-yl)acetamide]"
14,200 to 1000 nM,"O=C(Nc1c[nH]c2ccc(-c3cnn(-c4ccc(C(F)(F)F)cc4)c3)cc12)C1CN(CC(F)(F)F)C1 [Compound 247, 1-(2,2,2-trifluoroethyl)-N-(5-(1-(4-(trifluoromethyl)phenyl)-1H-pyrazol-4-yl)-1H-indol-3-yl)azetidine-3-carboxamide]"
15,1000 to 5000 nM,"CCC(=O)Nc1c[nH]c2ccc(-c3cnn(-c4cnc(CC)cn4)c3)cc12 [Compound 248, N-(5-(1-(5-ethylpyrazin-2-yl)-1H-pyrazol-4-yl)-1H-indol-3-yl)propionamide]"
16,1000 to 5000 nM,"CN1CC(C(=O)Nc2c[nH]c3ccc(-c4cnn(-c5ccc(C(F)(F)F)cc5)c4)cc23)CC1=O (stereo not drawn) [Compound 249, 1-methyl-5-oxo-N-(5-(1-(4-(trifluoromethyl)phenyl)-1H-pyrazol-4-yl)-1H-indol-3-yl)pyrrolidine-3-carboxamide]"
